{"source": "patent US12116344B2", "about": "“Crystalline forms of a pharmaceutical compound” (Azafaros B.V., priority 2020, dated 2024)", "key": {"[1]": {"target": "T1, glucosylceramide synthase (GCS) (Homo sapiens, UniProt Q16739)", "T1 sequence (Q16739 1-394)": "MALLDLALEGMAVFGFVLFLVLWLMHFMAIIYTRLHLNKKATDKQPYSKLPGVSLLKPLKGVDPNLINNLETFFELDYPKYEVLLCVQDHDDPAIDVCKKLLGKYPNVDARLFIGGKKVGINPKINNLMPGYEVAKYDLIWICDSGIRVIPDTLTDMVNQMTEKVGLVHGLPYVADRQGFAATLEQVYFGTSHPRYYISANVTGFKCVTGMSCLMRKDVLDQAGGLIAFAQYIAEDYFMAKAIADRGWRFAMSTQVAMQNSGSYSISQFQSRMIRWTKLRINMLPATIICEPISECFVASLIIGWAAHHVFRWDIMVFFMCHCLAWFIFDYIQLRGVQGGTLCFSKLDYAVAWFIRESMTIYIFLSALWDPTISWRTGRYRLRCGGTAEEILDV", "settings": "stated in words only, no test described; cited from earlier work"}, "[2]": {"system": "glucosylceramide C16:0 and C18:0", "test": "Glucosylceramide levels in brain homogenate of NPC mice (HPLC-MS/MS)", "assay_type": "in vivo", "procedure": "24 NPC1 (−/−) mice (groups D to I) were treated per oral gavage (10 mL/kg) with AZ-3102-00 from post-natal day 11 (P11) to post-natal-day 70 (P70). Dosing will start at 1.5 mg/kg from P11 to P25, followed by 3 mg/kg from P26 to P70. Control mice included 6 NPC1 (−/−) and 4 NPC (+/−) mice treated with vehicle and 4 NPC (+/+) mice received AZ-3102-00 (groups A to C).\nBrain tissues were homogenized in a solution of ultrapure water:methanol (1:1) with 0.1% formic acid (4 mL for each gram of tissue) using a FastPrep 24™ Microtube homogenizer. Tissues homogenates were then mixed for protein precipitation with a solution of acetonitrile:ultrapure water:methanol (90:5:5) containing 500 nM of GlcCer C17:0 and 0.1% formic acid. After a 5-min incubation at room temperature, the samples were centrifuged for 5 min (13000 rpm, 20° C.) and 50 μL of the supernatants were transferred into a siliconized MTP 96-well plate.\nConcentrations of glucosylceramide C16:0 (GlcCer C16:0), glucosylceramide C18:0 (GlcCer C18:0), and glucosylceramide C24:1 (GlcCer C24:1) brain, samples were quantified by HPLC-MS/MS detection in the multiple-reaction-monitoring mode (MRM). Supernatants were analysed by HPLC-MS/MS while using a HALO HILIC column (150*4.6 mm, 2.7 μm) from Advanced Materials Technology for distinguishing between the galactosyl- and -glucosylceramide isomers. […] Analysis of GlcCer C16:0 and GlcCer C18:0 was performed using a gradient with mobile phase A: 5 mM Ammonium Acetate in 94.5% acetonitrile 2.5% Methanol, 2.5% ultrapure water and 0.5% formic acid and mobile phase B: ultrapure Water and 0.1% formic acid. The LLOQ in brain samples for GlcCer 16:0, GlcCer 18:0 and GlcCer 24:1 was […] tissue, respectively."}, "[3]": {"settings": "whole brain homogenates, daily oral dosing PND 11-70"}}}
{"smiles": "OC[C@H]1[C@@H](O)[C@H](O)[C@@H](O)CN1CCCCCOCc1ccc(-c2ccccc2)c(F)c1", "note": "[AZ-3102]", "values": [{"measurement": "Potency as inhibitor of GCS", "setting": "[1]", "result": "highly potent (nM)"}, {"measurement": "Levels of glucosylceramide C16:0 and C18:0 in the brain", "setting": "[2]; repeat oral administration PND 11-70", "result": "increased levels"}, {"measurement": "Increase of GlcCer 16:0 compared to vehicle treated animals", "setting": "[2]; [3]", "result": "greater than 2 fold"}, {"measurement": "Increase of GlcCer 18:0 compared to vehicle treated animals", "setting": "[2]; [3]", "result": "approximately 9 fold"}]}
